Test results as given in patent US7037922B1, “Aryl fused 2,4-disubstituted pyridines: NK3 receptor ligands” (Neurogen Corporation, priority 2000, dated 2006).

Biological target: T1, NK-3 receptor (Homo sapiens, UniProt P29371)
T1 construct: expressed in transfected cells; total cellular membranes used
T1 sequence (P29371 1-465): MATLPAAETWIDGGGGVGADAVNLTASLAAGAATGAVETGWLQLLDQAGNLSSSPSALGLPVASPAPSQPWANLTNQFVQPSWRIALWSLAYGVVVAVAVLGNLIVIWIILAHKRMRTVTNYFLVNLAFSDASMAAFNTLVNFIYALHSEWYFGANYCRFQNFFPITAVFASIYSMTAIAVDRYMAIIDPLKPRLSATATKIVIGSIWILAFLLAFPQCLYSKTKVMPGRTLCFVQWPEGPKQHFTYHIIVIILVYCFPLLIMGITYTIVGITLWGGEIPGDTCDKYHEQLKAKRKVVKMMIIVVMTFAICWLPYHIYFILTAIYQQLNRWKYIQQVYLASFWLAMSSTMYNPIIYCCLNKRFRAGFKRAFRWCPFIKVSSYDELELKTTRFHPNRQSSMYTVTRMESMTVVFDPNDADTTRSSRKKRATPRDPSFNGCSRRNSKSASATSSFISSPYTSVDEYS
Test: NK3 receptor binding assay (displacement of 125I-methylPhe7-neurokinin B)
Details: membranes of Chinese hamster ovary cells expressing cloned human NK-3 receptor; 0.15 nM 125I-methylPhe7-neurokinin B; 2 hours at 4° C.
Experimental: The following assay is a standard assay of NK3 receptor binding, which is used to determine the NK-3 receptor binding affinity of compounds.
Assays are performed as described in Krause et al (Proc. Natl. Acad. Sci. USA 94: 310–315, 1997). The NK-3 receptor complementary DNA was cloned from human hypothalamic RNA using standard procedures. The receptor cDNA was inserted into the expression vector pM^2 to transfect the mammalian Chinese hamster ovary cell line, and a stably expressing clonal cell line was isolated, characterized and used for the current experiments. Cells are grown in minimal essential medium alpha containing 10% fetal bovine serum and 0.8 mg G418 per ml. Cells were liberated from cell culture plates with No-zyme (PBS base, JRH Biosciences), and harvested by low speed centrifugation. The cell pellet was homogenized in TBS (0.05 m TrisHCl, 120 mM NaCl, pH 7.4) with a Polytron homogenizer at setting 5 for 20 seconds, and total cellular membranes were isolated by centrifugation at 47,500×g for 10 minutes. The membrane pellet was resuspended by homogenization with the Polytron as above, and the membranes were isolated by centrifugation at 47,500×g for 10 minutes. This final membrane pellet was resuspended in TBS at a protein concentration of 350 μg/ml.
Receptor binding assays contain a total volume of 200 μl containing 50 μg membrane protein, 0.15 nM ^125I-methylPhe^7-neurokinin B, drug or blocker in TBS containing 1.0 mg/ml bovine serum albumen, 0.2 mg/ml bacitracin, 20 ug/ml leupeptin and 20 μg/ml chymostatin. Incubations are carried out for 2 hours at 4° C., and the membrane proteins are harvested by passing the incubation mixture by rapid filtration over presoaked GF/B filters to separate bound from free ligand. […] After filtration of the incubation mixture, filters are rinsed 4 times with ice-cold TBS containing 0.01% sodium dodecyl sulfate and counted in a β-plate scintillation counter. […] Data are collected in duplicate determinations, averaged, and the percent inhibition of total specific binding is calculated. […]

IC50	Compound
50 nM	CC[C@H](NC(=O)c1cc(-c2ccccc2)nc2ccncc12)c1ccccc1 [Compound 1]
80 nM	CC[C@H](NC(=O)c1cc(-c2ccccc2)nc2ccsc12)c1ccccc1 [Compound 2]
100 nM	CC[C@H](NC(=O)c1cc(-c2ccccc2)nc2ncccc12)c1ccccc1 [Compound 3]
